# Measurements published in US4443475A, “Amides of acyl-carnitines, process for preparing same and pharmaceutical compositions containing such amides” (priority 1979, dated 1984).
# Like-named read-outs stand apart in the source and are kept apart here.
# Assays:
# [1] = Acute toxicity (LD50), Weil method; conditions: mouse, in vivo, mice (Table I title)
# [2] = Anti-arrhythmic (antifibrillation) effect, aconitine-induced arrhythmia; format: in vivo, mice; conditions: Mus musculus, ip, read-out: Antifibrillation Effects, % reduction
# Experimental: (c) Anti-arrhythmic effect
# In order to evaluate by means of in vivo test the anti-arrhythmic effect exerted by the various carnitine derivatives in addition to and versus the usual in vitro tests, the method described by Nwangwu et al. (Arch. Int. Pharmacodyn., 1977, v. 229, 219) was employed.
# This method is carried out by injecting a solution of aconitine into the caudal […] and recording the time of the appearance of arrhythmia and tachycardia from 2 to 60 minutes following the administration of the compounds under investigation.
# [3] = Effect antagonizing adrenaline (mortality); format: in vivo; conditions: Mus musculus, ip, mice, 36 hours, read-out: Antiadrenaline Effects, % mortality reduction; for responders at 100 mg/kg: 100 mg/kg i.p.; for responders at 50 mg/kg: 50 mg/kg i.p.; for responders at 70 mg/kg: 70 mg/kg i.p.; for responders at 300 mg/kg: 300 mg/kg i.p.
# Experimental: (d) Effect antagonizing adrenaline
# Male Albino Swiss mice weighing 12-22 g, divided into groups of 10, were treated with the compounds under investigation or with saline (controls) i.p. and then 30 minutes later with adrenaline (treated) at a dose capable of causing death in 100% of the control animals due to ventricular fibrillation and cardiac lesions ensuing from increased heart rate, pressure and oxygen consumption by the myocardium.
# Mortality was monitored for 36 hours and the effect of the compounds was expressed in % of survivals versus treated animals.
# isolated rabbit heart = test: Inotropic effect on isolated rabbit heart (Langendorff) after anoxia; conditions: Oryctolagus cuniculus, 10 min; 10^-5 gl^-1, isolated rabbit heart, 10 minutes after end of anoxia; read-out: Inotropic Effect, % of controls (increased percentage versus controls)
# Experimental: Rabbit hearts isolated by Langendorff's method were perfused in a Ringer solution oxygenated at 38.2° C. The isometric […], ECG and coronary flow were recorded using a "Battaglia-Rangoni" polygraph.
# Metabolic damage in the heart muscle was induced by removing the oxygen from the perfusion liquid until contractile force was reduced by 80%.
# In these conditions of prolonged anoxia myocardial […] glycolysis was slowed down, accompanied by accumulation of catabolic acids due to storage of pyruvic acid and its conversion to lactic acid which cannot be utilized owing to the depression of the pyridinic enzymes, such as lacticodehydrogenase. This affects anaerobic glycolysis involving an ever increasing number of enzymes, with a progressive and increasingly more critical exhaustion of the myocardium.
# Thus there is a whole series of cardiac muscle fatigue levels recorded by the pattern of the parameters taken into account i.e. contractile force, coronary output, heart rate and cardiac rhythm. As soon as the contractile force was reduced by 80%, the perfusion liquid was once again oxygenated without adding other compounds (controls) or with the addition of the compounds under investigation at various concentrations.
# [4] = Antagonism to cardiazol (protection from death by convulsions); format: in vivo; conditions: ip, rat, 5 hours; for responders at 100 mg/kg: 100 mg/kg i.p. (head); for responders at 150 mg/kg: 150 mg/kg i.p. (head); for responders at 50 mg/kg: 50 mg/kg i.p. (head)
# [5] = Interaction with barbiturates (EVIPAN, loss of righting reflex); format: in vivo; conditions: Mus musculus, ip, mice, EVIPAN 75 mg/kg, read-out: Barbituric interaction, % reduction of RR (righting reflex) loss; for inhibition in vivo at 50 mg/kg: 50 mg/kg i.p. (head); for inhibition in vivo at 100 mg/kg: 100 mg/kg i.p. (head)
# [6] = Effect on spontaneous motility (ANIMEX); format: in vivo; conditions: Mus musculus, ip, 0.5 h, mice, control 850 ± 65 in 30 min, read-out: Spontaneous motility, % increase versus controls; for change in vivo at 25 mg/kg: 25 mg/kg i.p.; for change in vivo at 50 mg/kg: 50 mg/kg i.p.
# Experimental: (g) Effect on spontaneous motility
# Male Albino Swiss mice weighing 18-22 g, were divided into two groups of 5 and caged for at least 1 week. One group received the compounds under investigation and the other group (control group) was given the vehicle. The animals remained in their cages and were placed on the ANIMEX (Farad-Sweden) apparatus which recorded the movements for two 30-minute intervals beginning from 5 minutes after administration of the compounds.
# Table II gives the results expressed as percentage variation in the number of spontaneous movements of the treated animals versus those of the control animals.
Compound,"LD50 ([1]; ip, read-out: LD50 i.p.)","LD50 ([1]; oral, read-out: LD50 oral)",activation at 0.01 µg/mL (isolated rabbit heart),change in vivo at 25 mg/kg [6],inhibition in vivo at 50 mg/kg [2],inhibition in vivo at 50 mg/kg [5],change in vivo at 50 mg/kg [6],responders at 50 mg/kg [4],inhibition in vivo at 100 mg/kg [5],also measured
CCC(C)C(NC(=O)CC(C[N+](C)(C)C)OC(C)=O)C(=O)OC (stereo not drawn),500 mg/kg,1200 mg/kg,45%,34%,,,,,,inhibition in vivo at 40 mg/kg [2]: 65%; responders at 100 mg/kg [3]: 50%; responders at 100 mg/kg [4]: 53%; inhibition in vivo at 40 mg/kg ([5]; 40 mg/kg i.p. (head)): 35%
COC(=O)C(NC(=O)CC(C[N+](C)(C)C)OC(C)=O)C(C)C (stereo not drawn),600 mg/kg,2400 mg/kg,70%,,100%,40%,,,,responders at 50 mg/kg [3]: 80%; responders at 100 mg/kg [4]: 84%; change in vivo at 35 mg/kg ([6]; 35 mg/kg i.p.): 50%
COC(=O)C(CC(C)C)NC(=O)CC(C[N+](C)(C)C)OC(C)=O (stereo not drawn),1000 mg/kg,3500 mg/kg,45%,28%,70%,35%,,,,responders at 50 mg/kg [3]: 75%; responders at 150 mg/kg [4]: 60%
CCOC(=O)CC(O)CNC(=O)CC(C[N+](C)(C)C)OC(C)=O (stereo not drawn),450 mg/kg,1300 mg/kg,53%,,65%,25%,30%,,,responders at 70 mg/kg [3]: 60%; responders at 150 mg/kg [4]: 70%
CCC(=O)OC(CC(=O)NC(C(=O)OC)C(C)CC)C[N+](C)(C)C (stereo not drawn),750 mg/kg,2500 mg/kg,65%,,65%,,,39%,27%,responders at 100 mg/kg [3]: 50%; change in vivo at 100 mg/kg ([6]; 100 mg/kg i.p.): 35%
CCC(=O)OC(CC(=O)NC(C(=O)OC)C(C)C)C[N+](C)(C)C (stereo not drawn),500 mg/kg,1350 mg/kg,65%,75%,,58%,,,,inhibition in vivo at 35 mg/kg [2]: 60%; responders at 50 mg/kg [3]: 40%; responders at 35 mg/kg ([4]; 35 mg/kg i.p. (head)): 38%
CCC(=O)OC(CC(=O)NC(CC(=O)OC)C(=O)OC)C[N+](C)(C)C (stereo not drawn),590 mg/kg,1800 mg/kg,50%,59%,,,,,25%,inhibition in vivo at 40 mg/kg [2]: 70%; responders at 100 mg/kg [3]: 70%; responders at 40 mg/kg ([4]; 40 mg/kg i.p. (head)): 51%
CCC(=O)OC(CC(=O)NC(CCC(=O)OC)C(=O)OC)C[N+](C)(C)C (stereo not drawn),400 mg/kg,1200 mg/kg,45%,,,50%,25%,47%,,inhibition in vivo at 10 mg/kg [2]: 60%; responders at 70 mg/kg [3]: 40%
"CC(=O)OC(CC(=O)NCCS(=O)(=O)[O-])C[N+](C)(C)C (stereo not drawn) [COCH3; 2-sulfonyl ethyl amino, acetyl carnitine amide with taurine]",1500 mg/kg,4000 mg/kg,62%,,,,25%,,30%,inhibition in vivo at 300 mg/kg [2]: 70%; responders at 450 mg/kg ([3]; 450 mg/kg i.p.): 65%; responders at 150 mg/kg [4]: 65%
"COC(=O)CC(NC(=O)CC(C[N+](C)(C)C)OC(C)=O)C(=O)OC (stereo not drawn) [COCH3; (1,2-dicarbomethoxy ethyl) amino]",1500 mg/kg,4200 mg/kg,48%,,,,60%,75%,,inhibition in vivo at 75 mg/kg [2]: 80%; responders at 300 mg/kg [3]: 55%
"COC(=O)CCC(NC(=O)CC(C[N+](C)(C)C)OC(C)=O)C(=O)OC (stereo not drawn) [COCH3; (1,3-dicarbomethoxy propyl) amino]",1000 mg/kg,3600 mg/kg,40%,19%,,,,70%,,inhibition in vivo at 20 mg/kg [2]: 65%; responders at 150 mg/kg ([3]; 150 mg/kg i.p.): 40%; inhibition in vivo at 20 mg/kg ([5]; 20 mg/kg i.p. (head)): 40%
CCC(=O)OC(CC(=O)NCCS(=O)(=O)[O-])C[N+](C)(C)C (stereo not drawn) [OCOCH2 CH3; 2-sulfonyl ethyl amino],1500 mg/kg,4000 mg/kg,50%,,,,40%,,60%,inhibition in vivo at 150 mg/kg [2]: 95%; responders at 300 mg/kg [3]: 70%; responders at 150 mg/kg [4]: 40%
CCCC(=O)OC(CC(=O)NCCS(=O)(=O)[O-])C[N+](C)(C)C (stereo not drawn) [OCOCH2CH2CH3; 2-sulfonyl ethyl amino],1500 mg/kg,4000 mg/kg,40%,,60%,70%,43%,58%,,responders at 300 mg/kg [3]: 50%
CCC(=O)OC(CC(=O)NC(CC(C)C)C(=O)OC)C[N+](C)(C)C (stereo not drawn) [propionyl carnitine amide of leucine methyl ester],600 mg/kg,2350 mg/kg,45%,,75%,,62%,32%,31%,responders at 100 mg/kg [3]: 70%
